# How the values were obtained:
# Format in all cases: in vivo
# [1] = system: Rhipicephalus microplus larvae (strain Parkhurst, resistant against synthetic pyrethroids); experiment: Rhipicephalus (Boophilus) microplus in-vitro contact test, larval cattle tick; details: 5 μg/cm^2 (=500 g/ha), after 48 hours, read-out: efficacy (larvae dead or moribund)
# Experimental: Rhipicephalus (Boophilus) Microplus—In-Vitro Contact Tests Larval Cattle Tick (Strain Parkhurst, Resistant Against Synthetic Pyrethroids)
# (§1) 9 mg compound is solved in 1 mL acetone and diluted with acetone to the desired concentration. 250 μL of the test solution is filled in 25 mL glass test tubes and homogeneously distributed on the inner walls by rotation and tilting on a shaking device (2 h at 30 rpm). With a compound concentration of 900 ppm, an inner surface of 44.7 cm^2 and a homogeneous distribution, a dose of 5 μg/cm^2 is achieved.
# After the solvent has evaporated, each test tube is filled with 20-50 cattle tick larvae (Rhipicephalus microplus), closed with a perforated lid and incubated in a horizontal position at 85% relative humidity and 27° C. in an incubator. After 48 hours efficacy is determined. The larvae are patted on the ground of the tubes and negative geotactic behavior is recorded.
# An efficacy of 100% means all larvae are dead or moribund; 0% means no larvae are dead or moribund.
# [2] = system: adult cat fleas (Ctenocephalides felis); experiment: Ctenocephalides felis in-vitro contact test, adult cat flea; details: 5 μg/cm^2 (=500 g/ha), after 48 hours
# Experimental: Ctenocephalides felis—In-Vitro Contact Tests Adult Cat Flea
# as §1
# After the solvent has evaporated, each test tube is filled with 5-10 adult cat fleas (Ctenocephalides felis), closed with a perforated lid and incubated in a lying position at room temperature and relative humidity. After 48 hours efficacy is determined. The fleas are patted on the ground of the tubes and are incubated on a heating plate at 45-50° C. for at most 5 minutes. Immotile or uncoordinated moving fleas, which are not able to escape the heat by climbing upwards, are marked as dead or moribund.
# An efficacy of 100% means all fleas are dead or moribund; 0% means no fleas are dead or moribund.
# [3] = system: larvae of the banded cucumber beetle (Diabrotica balteata); experiment: Diabrotica balteata spray test; details: 168 h, 100 g/ha (=32 μg/well), wheat seeds, after 7 days, read-out: efficacy (seedling growth)
# Summary of the method: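 Efficacy in % was read 7 days after infesting with 10-20 larvae per unit. Before infestation, 1-day-germinated wheat seedlings (5 per well) were sprayed with the active ingredient, formulated in acetone and dimethylformamide plus emulsifier and diluted with water containing emulsifier.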
# [4] = system: fall armyworm larvae (Spodoptera frugiperda); experiment: Spodoptera frugiperda spray test (maize leaf sections); details: 168 h
# Summary of the method: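 Percent kill of Spodoptera frugiperda caterpillars read at day 7. Larvae placed on dried Zea mays leaf pieces previously sprayed with test preparation, made from acetone plus DMF and diluted with emulsifier-containing water (1000 ppm).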
# [5] = system: adult engorged female ticks (Rhipicephalus microplus); experiment: Rhipicephalus (Boophilus) microplus injection test; details: 168 h, 4 μg/animal, egg deposition after 7 days, read-out: efficacy (infertile eggs)
# Experimental: Rhipicephalus (Boophilus) Microplus—Injection Test
# (§2) Solvent: dimethyl sulfoxide
# To produce a suitable preparation of active compound, 10 mg of active compound are dissolved in 0.5 mL solvent, and the concentrate is diluted with solvent to the desired concentration.
# Five adult engorged female ticks (Rhipicephalus microplus) are injected with 1 μL compound solution into the abdomen. The ticks are transferred into replica plates and incubated in a climate chamber.
# After 7 days egg deposition of fertile eggs is monitored. Eggs where fertility is not visible are stored in a climate chamber till hatching after about 42 days. An efficacy of 100% means all eggs are infertile; 0% means all eggs are fertile.
# [6] = system: adult unfed cat fleas (Ctenocephalides felis); experiment: Ctenocephalides felis oral test; details: 48 h
# Experimental: Ctenocephalides felis—Oral Test
# as §2
# To produce a suitable preparation of active compound, 10 mg of active compound are dissolved in 0.5 mL solvent, and the concentrate is diluted with cattle blood to the desired concentration.
# Approximately 20 adult unfed cat fleas (Ctenocephalides felis) are placed in flea chambers. The blood chamber, sealed with parafilm on the bottom, are filled with cattle blood supplied with compound solution and placed on the gauze covered top of the flea chamber, so that the fleas are able to suck the blood. The blood chamber is heated to 37° C. whereas the flea chamber is kept at room temperature.
# After 2 days mortality in % is determined. 100% means all the fleas have been killed; 0% means none of the fleas have been killed.
# [7] = system: green peach aphid (Myzus persicae); experiment: Myzus persicae oral test; details: 120 h
# Experimental: Myzus persicae—oral test • Solvent: 100 parts by weight acetone
# To produce a suitable preparation of active compound, 1 part by weight of active compound is mixed with the stated amount of solvent, and the concentrate is diluted with water to the desired concentration. 50 μL compound solution is filled in microtiter plates and 150 μL IPL41 insect medium (33%+15% sugar) is added to obtain a total volume of 200 μL per well. Afterwards the plates are sealed with parafilm through which a mixed population of the green peach aphid (Myzus persicae) can suck on the compound preparation.
# (§3) After 5 days mortality in % is determined. 100% means all aphids have been killed and 0% means none of the aphids have been killed.
# [8] = system: adult mosquitoes Aedes aegypti strain MONHEIM; experiment: Aedes aegypti test (AEDSAE surface treatment & contact assay); details: 24 hours after contact, read-out: efficacy (mortality); for mortality at 4 mg/m2: surface concentration 4 mg/m^2, 30 min exposure; for mortality at 20 mg/m2: surface concentration 20 mg/m^2, 30 min exposure
# Experimental: Aedes aegypti test (AEDSAE surface treatment & contact assay) • Solvent: Aceton+2000 ppm rapeseed oil methyl ester (RME)
# (§4) In order to produce a sufficient, active ingredient containing solution it is necessary to solve the test compound in the solvent-mix (acetone at 2 mg/ml/RME 2000 ppm). This solution is pipetted onto a glazed tile and after evaporation of the acetone, adult mosquitoes of the species Aedes aegypti strain MONHEIM are placed onto the dried surface. The exposure time is 30 minutes.
# (§5) Mortality in percent (%) is determined 24 hours after contact of the insects to the treated surface. 100% mortality means that all tested insects are dead, whereas 0% means that no insect died.
# [9] = system: adult flies Musca domestica strain WHO-N; experiment: Musca domestica test (MUSCDO surface treatment & contact assay); details: 24 hours after contact, read-out: efficacy (mortality); for mortality at 20 mg/m2: surface concentration 20 mg/m^2, 30 min exposure; for mortality at 4 mg/m2: surface concentration 4 mg/m^2, 30 min exposure
# Experimental: Musca domestica Test (MUSCDO Surface Treatment & Contact Assay) • Solvent: Aceton+2000 ppm rapeseed oil methyl ester (RME)
# as §4, with “flies” for “mosquitoes”, “Musca domestica” for “Aedes aegypti”, “WHO-N” for “MONHEIM”
# as §5
# [10] = system: green peach aphid (Myzus persicae); experiment: Myzus persicae spray test; details: foliar, 120 h, Chinese cabbage leaf disks, after 5 days
# Experimental: Myzus persicae—Spray Test • Solvent: 78.0 parts by weight acetone • 1.5 parts by weight dimethylformamide • Emulsifier: alkylarylpolyglycol ether
# To produce a suitable preparation of active compound, 1 part by weight of active compound is mixed with the stated amount of solvents and is diluted with water, containing an emulsifier concentration of 1000 ppm, to the desired concentration. Further test concentrations are prepared by dilution with emulsifier containing water.
# Chinese cabbage (Brassica pekinensis) leaf disks infected with all instars of the green peach aphid (Myzus persicae), are sprayed with a preparation of the active ingredient of the desired concentration.
# as §3
# [11] = system: larvae of the southern green stink bug (Nezara viridula); experiment: Nezara viridula spray test; details: in Hordeum vulgare, 96 h
# Summary of the method: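 Mortality (%) of stink bug larvae on treated barley (Hordeum vulgare) was scored 4 days after infestation. Test solutions came from an acetone/DMF concentrate diluted with water containing 1000 ppm emulsifier and were sprayed onto plants before larvae were added.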
Structure (SMILES),pest or weed control at 5 µg/cm2 [1],efficacy (fleas dead or moribund) [2],"pest or weed control at 32 µg/disc, 100 g/ha [3]",mortality at 100 g/ha [4],pest or weed control at 0.004 mg [5],mortality at 100 ppm [6],mortality at 4 ppm [7],mortality at 4 mg/m2 [8],mortality at 20 mg/m2 [8],mortality at 20 mg/m2 [9],mortality at 100 g/ha [10],mortality at 4 mg/m2 [9],mortality at 500 g/ha [11],mortality at 100 g/ha [11]
CC(NC(=O)c1cc(Cl)cc(OC(F)(F)F)c1)c1ncnn1-c1ncc(C#N)s1 (stereo not shown) [I-28],100%,100%,100%,100%,,,,,,,,,,
CC(NC(=O)c1cc(C(F)F)cc(C(F)F)c1)c1ncnn1-c1ncc(C#N)s1 (stereo not shown) [I-33],90%,80%,100%,100%,100%,100%,100%,80 to 100%,80 to 100%,80 to 100%,,,,
CC(NC(=O)c1cc(OC(F)(F)F)cc(S(C)(=O)=O)c1)c1ncnn1-c1ncc(C#N)s1 (stereo not shown) [I-37],,80%,100%,100%,100%,100%,100%,,,,,,,
C[C@H](NC(=O)c1cc(Br)cc(C(C)(F)F)c1)c1ncnn1-c1ncc(C#N)s1 [I-47],90%,,100%,100%,,,,80 to 100%,80 to 100%,80 to 100%,90%,90 to 100%,,
C[C@H](NC(=O)c1cc(Cl)cc(C2(C#N)CC2)c1)c1ncnn1-c1ncc(C#N)s1 [I-52],,,100%,100%,,,,,80 to 100%,80 to 100%,100%,90 to 100%,100%,
Cc1nc([C@H](C)NC(=O)c2cc(Br)cc(C#N)c2)n(-c2ncc(C(=O)N(C)CC#N)s2)n1 [I-75],90%,90%,100%,,,,100%,,,,,,,
Cc1nc([C@H](C)NC(=O)c2cc(Cl)cc(I)c2)n(-c2ncc(C(=O)N(C)C)s2)n1 [I-76],100%,80%,,100%,,,,,,,,,,
CC(NC(=O)c1cc(C(F)(F)F)cc(S(C)(=O)=O)c1)c1ncnn1-c1ncc(C#N)s1 (stereo not shown) [I-82],90%,80%,80%,100%,100%,100%,100%,,,,,,,90%
Cc1nc([C@H](C)NC(=O)c2cc(C(F)(F)F)cc(S(C)(=O)=O)c2)n(-c2ncc(C(=O)N(C)C)s2)n1 [I-83],,80%,,,100%,100%,100%,,,,,,,
Cc1nc([C@H](C)NC(=O)c2cc(C(F)(F)F)cc(C(F)(F)F)c2)n(-c2ncc(C#N)s2)n1 [I-90],,,100%,100%,,,,80 to 100%,,80 to 100%,90%,90 to 100%,,
C[C@H](NC(=O)c1cc(Br)cc(C(C)(C)F)c1)c1ncnn1-c1ncc(C#N)s1 [I-99],,,100%,100%,,,,80 to 100%,80 to 100%,80 to 100%,100%,90 to 100%,100%,100%
Cc1nc([C@H](C)NC(=O)c2cc(Br)cc(OC(F)(F)F)c2)n(-c2ncc(C(=O)N(C)CC3CC3)s2)n1 [I-124],100%,100%,100%,100%,,,,,,,,,100%,100%
Cc1nc([C@H](C)NC(=O)c2cc(Br)cc(OC(F)(F)F)c2)n(-c2ncc(C(=O)N(C)C(C)C)s2)n1 [I-126],100%,80%,100%,100%,,,,,,,,,,

# — patent publication US20230065953A1, “NOVEL HETEROARYL-TRIAZOLE COMPOUNDS AS PESTICIDES” (Bayer Aktiengesellschaft, priority 2019, published 2023)
